logP | Compound
1.9 | O=C1COCC(=O)N(Cc2ccccc2)CCN(Cc2ccccc2)C(=O)COCC(=O)NCCN1
3.8 | O=C1COCC(=O)N(Cc2ccccc2)CCN(Cc2ccccc2)C(=O)COCC(=O)N(Cc2ccccc2)CCOCCN1Cc1ccccc1
6.7 | O=C(COCC(=O)N(C1CCCCC1)C1CCCCC1)N(C1CCCCC1)C1CCCCC1
2.2 | O=C1COCC(=O)N(Cc2ccccc2)CCN(c2ccccc2)CCN(Cc2ccccc2)C(=O)COCC(=O)NCCN1
3.8 | O=C1COCC(=O)N(Cc2ccccc2)CCN(Cc2ccccc2)C(=O)COCC(=O)N(Cc2ccccc2)CCN1Cc1ccccc1
5.2 | O=C1COCC(=O)N(Cc2ccccc2)CCN(c2ccccc2)CCN(Cc2ccccc2)C(=O)COCC(=O)N(Cc2ccccc2)CCN1Cc1ccccc1
3.8 | O=C1COCC(=O)N(Cc2ccccc2)CCOCCN(Cc2ccccc2)C(=O)COCC(=O)N(Cc2ccccc2)CCOCCN1Cc1ccccc1
3.8 | O=C1COCCOCC(=O)N(Cc2ccccc2)CCN(Cc2ccccc2)C(=O)COCCOCC(=O)N(Cc2ccccc2)CCN1Cc1ccccc1
5.2 | O=C1COCC(=O)N(Cc2ccccc2)CCN(c2ccc(F)cc2)CCN(Cc2ccccc2)C(=O)COCC(=O)N(Cc2ccccc2)CCN1Cc1ccccc1
5.1 | O=C1CCCCCCC(=O)N(Cc2ccccc2)CCN(Cc2ccccc2)C(=O)CCCCCCC(=O)N(Cc2ccccc2)CCN1Cc1ccccc1
6.2 | CCOC(=O)CCCCCCCCCCCN(C)C(=O)CO[C@@H](C)[C@H](C)OCC(=O)N(C)CCCCCCCCCCCC(=O)OCC
2.5 | CCN(Cc1ccccc1)C(=O)COCC(=O)N(CC)Cc1ccccc1

Source: the SangsterLogP compilation
